Laboratory results published in patent US12448369B2 (Edgewise Therapeutics, Inc., priority 2023, dated 2025).

Columns and labels:
[1] = test system: Porcine atria myofibrils (atrial myosin ATPase); assay: Myofibril ATPase assay, porcine atria myofibrils; assay type: biochemical; conditions: Y75 value (no ‡ mark); porcine atria myofibrils
Method in brief: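 Values are Y75 (concentration cutting ATPase activity to 75% of vehicle) or Y125 (raising it to 125%), taken from 4-parameter logistic fits. Rates come from NADH disappearance at 340 nm in a PK/LDH-coupled assay with porcine atria myofibrils.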

[2] = target: T1, Porcine ventricle myofibrils (ventricular myosin ATPase) (Sus scrofa, UniProt P79293); assay: Myofibril ATPase assay, porcine ventricle myofibrils; assay type: biochemical, porcine (Yucatan minipigs); conditions: Y75 value (no ‡ mark); porcine ventricle myofibrils
T1 construct: Myofibrils from porcine cardiac muscle was isolated from the left ventricle of Yucatan minipigs; tissue Exemplar Genetics; host or cells: left ventricle of Yucatan minipigs, myofibrils prepared in house
Method in brief: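 Left-ventricle myofibrils from Yucatan minipigs were tested with a PK/LDH-coupled system, following NADH loss at 340 nm every 1.5-2 min for 75 min. Slopes were normalized to vehicle wells and fit to a 4-parameter logistic model; values are Y75 (25% ATPase reduction) or Y125 concentrations.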

[3] = test system: Rabbit Psoas myofibrils (skeletal myosin ATPase); assay: Myofibril ATPase assay, rabbit psoas (skeletal) myofibrils; assay type: biochemical; conditions: Y75 value (no ‡ mark); rabbit psoas myofibrils
Method in brief: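 Myofibrils homogenized in Triton X-100 buffer were assayed in pH 7.0 PIPES with defined Ca2+/EGTA. Myosin-driven ADP formation was coupled to NADH oxidation, with depletion monitored at 340 nm. Each value is the concentration that lowers activity to 75% of vehicle or, for activators, raises it to 125%.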

T1 sequence (P79293 whole entry): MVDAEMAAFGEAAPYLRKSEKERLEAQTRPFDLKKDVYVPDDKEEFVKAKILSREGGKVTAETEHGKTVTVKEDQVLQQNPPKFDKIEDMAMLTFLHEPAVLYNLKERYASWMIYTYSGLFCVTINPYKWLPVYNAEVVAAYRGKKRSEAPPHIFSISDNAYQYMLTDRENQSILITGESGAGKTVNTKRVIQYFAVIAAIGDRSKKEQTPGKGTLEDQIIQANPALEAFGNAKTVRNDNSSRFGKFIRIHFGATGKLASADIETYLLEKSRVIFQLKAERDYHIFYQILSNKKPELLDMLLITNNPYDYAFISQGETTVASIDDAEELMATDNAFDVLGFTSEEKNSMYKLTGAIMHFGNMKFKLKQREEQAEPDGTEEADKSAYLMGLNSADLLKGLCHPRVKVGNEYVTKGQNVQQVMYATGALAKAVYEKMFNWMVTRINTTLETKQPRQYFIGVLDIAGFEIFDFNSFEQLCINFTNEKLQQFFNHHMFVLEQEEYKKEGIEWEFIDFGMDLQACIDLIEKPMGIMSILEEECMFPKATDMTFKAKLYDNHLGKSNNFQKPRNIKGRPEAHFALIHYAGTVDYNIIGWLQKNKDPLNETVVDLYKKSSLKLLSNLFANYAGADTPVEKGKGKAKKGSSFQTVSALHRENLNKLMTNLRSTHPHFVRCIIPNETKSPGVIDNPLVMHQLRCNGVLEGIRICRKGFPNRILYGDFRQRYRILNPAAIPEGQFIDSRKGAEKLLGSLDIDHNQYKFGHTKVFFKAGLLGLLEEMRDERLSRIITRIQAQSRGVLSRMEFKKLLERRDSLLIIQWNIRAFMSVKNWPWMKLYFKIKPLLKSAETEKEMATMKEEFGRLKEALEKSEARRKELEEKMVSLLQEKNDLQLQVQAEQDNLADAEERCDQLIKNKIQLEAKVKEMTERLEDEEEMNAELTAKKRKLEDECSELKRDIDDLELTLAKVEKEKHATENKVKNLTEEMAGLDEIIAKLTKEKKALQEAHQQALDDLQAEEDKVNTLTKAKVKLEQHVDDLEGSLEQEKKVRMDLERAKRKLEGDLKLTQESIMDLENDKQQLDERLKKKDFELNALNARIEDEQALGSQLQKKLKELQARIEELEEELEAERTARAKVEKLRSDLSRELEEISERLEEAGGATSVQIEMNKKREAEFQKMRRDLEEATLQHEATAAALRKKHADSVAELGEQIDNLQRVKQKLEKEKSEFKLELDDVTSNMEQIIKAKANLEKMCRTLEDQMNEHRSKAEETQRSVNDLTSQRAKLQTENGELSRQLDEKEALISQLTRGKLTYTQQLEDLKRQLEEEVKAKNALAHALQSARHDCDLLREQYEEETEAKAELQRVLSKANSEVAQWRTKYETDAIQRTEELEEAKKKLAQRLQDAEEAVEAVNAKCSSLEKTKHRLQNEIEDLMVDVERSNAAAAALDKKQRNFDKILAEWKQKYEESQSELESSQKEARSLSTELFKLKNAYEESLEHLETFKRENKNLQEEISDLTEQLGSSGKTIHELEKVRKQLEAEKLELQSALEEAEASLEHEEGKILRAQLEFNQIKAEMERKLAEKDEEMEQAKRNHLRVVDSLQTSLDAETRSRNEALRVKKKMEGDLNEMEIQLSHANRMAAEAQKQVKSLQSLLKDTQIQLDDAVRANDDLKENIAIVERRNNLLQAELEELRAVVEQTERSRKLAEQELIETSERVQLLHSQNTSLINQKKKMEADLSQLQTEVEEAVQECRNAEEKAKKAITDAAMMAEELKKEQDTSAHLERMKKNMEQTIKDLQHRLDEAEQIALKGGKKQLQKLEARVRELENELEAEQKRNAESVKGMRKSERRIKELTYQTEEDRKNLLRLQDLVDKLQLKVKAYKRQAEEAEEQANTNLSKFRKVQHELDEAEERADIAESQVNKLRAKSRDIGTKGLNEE

| Atrial EC25 [1] [nM] | Ventricular EC25 [2] [nM] | Skeletal EC25 [3] [nM] | Compound |
| --- | --- | --- | --- |
| 100000 | 100000 | 14830 | Cc1c(CC(=O)N[C@H](C)c2ccc(F)cn2)c(=O)[nH]c2cccc(F)c12 [compound 43] |
| 210 | 1970 | 50 | Cc1c(CC(=O)N[C@@H](C)c2ccc(F)cn2)c(=O)[nH]c2cccc(F)c12 [compound 44] |
| 70 | 420 | 120 | Cc1c(CC(=O)N[C@H](C)c2ccc(C#N)cn2)c(=O)[nH]c2ccc(F)c(F)c12 [compound 45] |
| 240 | 120 | 20 | Cc1c(CC(=O)N[C@@H](C)c2ccc(C#N)cn2)c(=O)[nH]c2ccc(F)c(F)c12 [compound 46] |
| 4480 | 4800 | 430 | C[C@@H](NC(=O)Cc1cc2c(F)cccc2[nH]c1=O)c1ccc(C#N)cn1 [compound 47] |
| 1550 | 4140 | 230 | C[C@H](NC(=O)Cc1cc2c(F)cccc2[nH]c1=O)c1ccc(C#N)cn1 [compound 48] |
| 180 | 680 | 60 | Cc1c(CC(=O)N[C@H](C)c2ccc(C#N)cn2)c(=O)[nH]c2ccc(F)c(C#N)c12 [compound 49] |
| 50 | 230 | 20 | Cc1c(CC(=O)N[C@@H](C)c2ccc(C#N)cn2)c(=O)[nH]c2ccc(F)c(C#N)c12 [compound 50] |
| 230 | 400 | 60 | Cc1c(CC(=O)N[C@H](C)c2ncc(C#N)cc2F)c(=O)[nH]c2cccc(F)c12 [compound 51] |
| 60 | 100 | 20 | Cc1c(CC(=O)N[C@@H](C)c2ncc(C#N)cc2F)c(=O)[nH]c2cccc(F)c12 [compound 52] |
| 1930 | 6530 | 310 | Cc1c(CC(=O)N[C@H](C)c2ccc(C#N)cn2)c(=O)[nH]c2cccc(F)c12 [compound 53] |
| 110 | 1530 | 40 | Cc1c(CC(=O)N[C@@H](C)c2ccc(C#N)cn2)c(=O)[nH]c2cccc(F)c12 [compound 54] |
| 1290 | 100000 | 1200 | C[C@@H](NC(=O)Cc1c(C2CC2)c2cc(F)ccc2[nH]c1=O)c1ccc(C#N)cn1 [compound 55] |
| 2470 | 3980 | 120 | C[C@H](NC(=O)Cc1c(C2CC2)c2cc(F)ccc2[nH]c1=O)c1ccc(C#N)cn1 [compound 56] |
| 230 | 220 | 20 | Cc1c(CC(=O)N[C@H](C)c2ccc(C#N)cc2F)c(=O)[nH]c2ccc(F)c(F)c12 [compound 65] |
| 50 | 60 | 10 | Cc1c(CC(=O)N[C@@H](C)c2ccc(C#N)cc2F)c(=O)[nH]c2ccc(F)c(F)c12 [compound 66] |
| 110 | 260 | 30 | Cc1c(CC(=O)N[C@H](C)c2ccc(C#N)cc2F)c(=O)[nH]c2ccc(F)c(C#N)c12 [compound 67] |
| 60 | 70 | 10 | Cc1c(CC(=O)N[C@@H](C)c2ccc(C#N)cc2F)c(=O)[nH]c2ccc(F)c(C#N)c12 [compound 68] |
| 30 | 110 | 10 | Cc1c(CC(=O)N[C@H](C)c2ccc(C#N)cc2F)c(=O)[nH]c2ccc(F)c(C3CC3)c12 [compound 69] |
| 100000 | 100000 | 30 | Cc1c(CC(=O)N[C@@H](C)c2ccc(C#N)cc2F)c(=O)[nH]c2ccc(F)c(C3CC3)c12 [compound 70] |
| 2520 | 55560 | 7240 | Cc1c(CC(=O)N[C@@H](C)c2ccc(F)cc2F)c(=O)[nH]c2ccc(O)c(C#N)c12 [compound 84] |

Continued, molecule first:

| Compound | Atrial EC25 [1] [nM] | Ventricular EC25 [2] [nM] | Skeletal EC25 [3] [nM] |
| --- | --- | --- | --- |
| C[C@H](NC(=O)Cc1cc2c(F)c(F)ccc2[nH]c1=O)c1ncc(F)cc1F [compound 34] | 20 | 50 | 20 |
| Cc1c(CC(=O)N[C@H](C)c2ccc(C#N)cc2F)c(=O)[nH]c2ccc(F)c(C(F)(F)F)c12 [compound 37] | 40 | 50 | 20 |
| Cc1c(CC(=O)N[C@@H](C)c2ccc(C#N)cc2F)c(=O)[nH]c2ccc(F)c(C(F)(F)F)c12 [compound 38] | 30 | 60 | 20 |
| C[C@@H](NC(=O)Cc1c(C2CC2)c2cc(F)ccc2[nH]c1=O)c1ncc(C#N)cc1F [compound 39] | 100000 | 100000 | 100000 |
| C[C@H](NC(=O)Cc1c(C2CC2)c2cc(F)ccc2[nH]c1=O)c1ncc(C#N)cc1F [compound 40] | 470 | 410 | 20 |
| Cc1c(CC(=O)N[C@H](CO)c2ccc(C#N)cc2F)c(=O)[nH]c2ccc(F)c(C3CC3)c12 [compound 71] | 1100 | 8500 | 230 |
| Cc1c(CC(=O)N[C@@H](CO)c2ccc(C#N)cc2F)c(=O)[nH]c2ccc(F)c(C3CC3)c12 [compound 72] | 80 | 340 | 20 |
| C[C@@H](NC(=O)Cc1c(C2CC2)c2cc(F)ccc2[nH]c1=O)c1ccc(C#N)cc1F [compound 73] | 100000 | 100000 | 20 |
| C[C@H](NC(=O)Cc1c(C2CC2)c2cc(F)ccc2[nH]c1=O)c1ccc(C#N)cc1F [compound 74] | 690 | 460 | 10 |
| N#Cc1ccc([C@@H](CO)NC(=O)Cc2c(C3CC3)c3cc(F)ccc3[nH]c2=O)c(F)c1 [compound 75] | 59370 | 610 | 15210 |
| N#Cc1ccc([C@H](CO)NC(=O)Cc2c(C3CC3)c3cc(F)ccc3[nH]c2=O)c(F)c1 [compound 76] | 100000 | 100000 | 100000 |
| C[C@H](NC(=O)Cc1cc2c(C#N)c(O)ccc2[nH]c1=O)c1ccc(F)cc1F [compound 82] | 100000 | 100000 | 100000 |
| Cc1c(CC(=O)N[C@@H](C)c2ccc(F)cc2F)c(=O)[nH]c2ccc(F)c(Cl)c12 [compound 85] | 30 | 70 | 20 |
| COc1ccc2[nH]c(=O)c(C(C)C(=O)N[C@@H](C)c3ccc(F)cc3F)cc2c1Cl (stereo partly drawn) [compound 87] | 100000 | 100000 | 100000 |
| C[C@H](NC(=O)Cc1cc2c(Cl)c(O)ccc2[nH]c1=O)c1ccc(F)cc1F [compound 91] | 1380 | 100000 | 3550 |
| COc1ccc2[nH]c(=O)c(CC(=O)N[C@@H](C)c3ccc(F)cc3F)cc2c1C [compound 92] | 29940 | 100000 | 2830 |
| CC(C(=O)N[C@@H](C)c1ccc(F)cc1F)c1cc2c(Br)cccc2[nH]c1=O (stereo partly drawn) [compound 94] | 6810 | 100000 | 220 |
| Cc1c(CC(=O)N[C@@H](C)c2ccc(F)cc2F)c(=O)[nH]c2ccc(F)c(C(F)(F)F)c12 [compound 96] | 70 | 130 | 10 |
| Cc1c(CC(=O)N[C@@H](C)c2ccc(F)cc2F)c(=O)[nH]c2ccc(F)c(C3CC3)c12 [compound 101] | 40 | 110 | 230 |
| C[C@H](NC(=O)Cc1c(C(F)F)c2cc(F)ccc2[nH]c1=O)c1ccc(F)cc1F [compound 106] | 50 | 200 | 40 |
| C[C@H](NC(=O)Cc1c(C(F)F)c2c(F)c(F)ccc2[nH]c1=O)c1ccc(F)cc1F [compound 107] | 30 | 90 | 20 |
| Cc1c(CC(=O)N[C@@H](C)c2ccc(F)cc2F)c(=O)[nH]c2ccc(F)c(Br)c12 [compound 109] | 40 | 130 | 10 |
